The source made the active and inactive calls. The rule behind the calls is not given here.
How the values were obtained:
[1] = tested on: MCF7; experiment: Cytotoxicity against human MCF7 cells assessed as reduction in cell viability measured after 48 hrs by MTT assay; type: functional, cell-based; conditions: MCF7, 48 h
[2] = tested on: A549; experiment: Cytotoxicity against human A549 cells assessed as reduction in cell viability measured after 24 hrs by MTT assay; type: functional, cell-based; conditions: A549, 24 h
[3] = tested on: HeLa; experiment: Cytotoxicity against human HeLa cells assessed as reduction in cell viability measured after 48 hrs by MTT assay; type: functional, cell-based
[4] = tested on: HeLa; experiment: Cytotoxicity against human HeLa cells assessed as reduction in cell viability measured after 72 hrs by MTT assay; type: functional, cell-based
[5] = tested on: MCF7; experiment: Cytotoxicity against human MCF7 cells assessed as reduction in cell viability measured after 24 hrs by MTT assay; type: functional, cell-based; conditions: MCF7, 24 h
[6] = tested on: A549; experiment: cells; conditions: Homo sapiens, A549, 48 h
[7] = tested on: MCF7; experiment: Cytotoxicity against human MCF7 cells assessed as reduction in cell viability measured after 72 hrs by MTT assay; type: functional, cell-based; conditions: MCF7, 72 h
[8] = tested on: SW480; experiment: Cytotoxicity against human SW480 cells assessed as reduction in cell viability measured after 72 hrs by MTT assay; type: functional, cell-based; conditions: SW480, 72 h
[9] = tested on: SW480; experiment: Cytotoxicity against human SW480 cells assessed as reduction in cell viability measured after 48 hrs by MTT assay; type: functional, cell-based; conditions: SW480, 48 h
[10] = tested on: HeLa; experiment: Cytotoxicity against human HeLa cells assessed as reduction in cell viability measured after 24 hrs by MTT assay; type: functional, cell-based
[11] = tested on: A549; experiment: Cytotoxicity against human A549 cells assessed as reduction in cell viability measured after 72 hrs by MTT assay; type: functional, cell-based; conditions: A549, 72 h
[12] = tested on: SW480; experiment: Cytotoxicity against human SW480 cells assessed as reduction in cell viability measured after 24 hrs by MTT assay; type: functional, cell-based; conditions: SW480, 24 h
[13] = Antioxidant activity assessed as DPPH radical scavenging activity incubated for 30 mins under dark condition relative to control; type: functional; set-up: concentration or dose not given beside the values
[14] = Antioxidant activity assessed as GPx-like activity by measuring oxidation of NADPH to NADP+ by NADPH-reductase coupled assay; type: functional
[15] = tested on: MCF7; experiment: Induction of apoptosis in human MCF7 cells assessed as down regulation of Bcl-2 expression at IC50 measured after 48 hrs by ELISA relative to control; type: functional
[16] = tested on: MCF7; experiment: Induction of apoptosis in human MCF7 cells assessed as up regulation of caspase-3 expression at IC50 measured after 48 hrs by ELISA relative to control; type: functional
[17] = tested on: MCF7; experiment: Induction of apoptosis in human MCF7 cells assessed as up regulation of IL-2 expression at IC50 measured after 48 hrs by ELISA relative to control; type: functional

SMILES | IC50 [1] [µM] | IC50 [2] [µM] | IC50 [3] [µM] | IC50 [4] [µM] | IC50 [5] [µM] | IC50 [6] [µM] | IC50 [7] [µM] | IC50 [8] [µM] | IC50 [9] [µM] | IC50 [10] [µM] | IC50 [11] [µM] | IC50 [12] [µM] | inhibition [13] [%] | Activity [14] | Activity [15] | Activity [16] | fold change (FC) [17] | Activity [17]
CC(C(=O)O)c1cccc(C(=O)c2ccccc2)c1 (stereo not drawn) [KETOPROFEN] | > 50 | > 50 | > 50 | > 50 | > 50 | > 50 | > 50 | > 50 | > 50 | > 50 | > 50 | > 50 |  |  |  |  |  | 
CC1=C(CC(=O)NCCC[Se]C(F)(F)F)c2cc(F)ccc2/C1=C\c1ccc([S+](C)[O-])cc1 (stereo not drawn) | 6.4 | 9.4 | 15.1 | 19.4 | 8.2 | 11.3 | 10.4 | 10.1 | 11.4 | 24.3 | 7.4 | 13.4 | 32.8 |  |  |  |  | 
CC(C(=O)NCCC[Se]C#N)c1ccc(-c2ccccc2)c(F)c1 (stereo not drawn) | 32.1 | 23.5 | 32.4 | 15.9 | 22.4 | 32.2 | > 50 | 21.7 | 30.5 | 36.2 | > 50 | 23.2 | 16.3 |  |  |  |  | 
CCc1cccc2c3c([nH]c12)C(CC)(CC(=O)NCCC[Se]C(F)(F)F)OCC3 (stereo not drawn) | 28.4 | 19.4 | 14.4 | 25.5 | 26.2 | 17.7 | 33.5 | 19.6 | 14.5 | 22.8 | 26.6 | 17.5 | 26.8 |  |  |  |  | 
N#C[Se]CCCNC(=O)c1ccccc1Nc1cccc(C(F)(F)F)c1 | 16.4 | 26.1 | 33.4 | > 50 | 14.2 | 28.3 | 13.3 | 24.7 | 17.4 | 38.2 | 36.4 | 25.2 |  |  |  |  |  | 
O=C(NCCC[Se]C(F)(F)F)c1ccccc1Nc1cccc(C(F)(F)F)c1 | 8.4 | 18.1 | 30.3 | > 50 | 7.2 | 21.3 | 9.3 | 19.7 | 15.7 | 33.2 | 26.4 | 22.2 |  |  |  |  |  | 
COc1ccc2c(c1)c(CC(=O)NCCC[Se]C(F)(F)F)c(C)n2C(=O)c1ccc(Cl)cc1 | 26 | 18.3 | 21.4 | 15.6 | 17.3 | 26.5 | 35 | 13.1 | 16.4 | 30.1 | 30.3 | 14.6 | 25.8 |  |  |  |  | 
COc1ccc2cc([C@H](C)C(=O)NCCC[Se]C#N)ccc2c1 | 27.1 | 32.2 | 24.5 | 35.7 | 28.3 | > 50 | > 50 | 30.4 | 21.7 | 21.5 | > 50 | 12 | 22.6 |  |  |  |  | 
COc1ccc2c(c1)c(CC(=O)O)c(C)n2C(=O)c1ccc(Cl)cc1 [INDOMETHACIN] | > 50 | > 50 | > 50 | > 50 | > 50 | > 50 | > 50 | > 50 | > 50 | > 50 | > 50 | > 50 |  |  |  |  |  | 
CC1=C(CC(=O)O)c2cc(F)ccc2/C1=C\c1ccc([S+](C)[O-])cc1 (stereo not drawn) | > 50 | > 50 | > 50 | > 50 | > 50 | > 50 | > 50 | > 50 | > 50 | > 50 | > 50 | > 50 |  |  |  |  |  | 
COc1ccc2cc([C@H](C)C(=O)NCCC[Se]C(F)(F)F)ccc2c1 | 22.1 | 28.4 | 22.5 | 30.7 | 19.3 | 33.5 | 35.5 | 25.4 | 15.7 | 16.5 | > 50 | 10 | 37.2 |  |  |  |  | 
C[C@H](C(=O)NCCC[Se]C(F)(F)F)c1cccc(C(=O)c2ccccc2)c1 | 9.3 | 13.1 | 17.5 | 28.7 | 8.6 | 18.4 | 9.5 | 6.5 | 7.4 | 19.6 | 22.6 | 8.2 | 48.4 | Active |  |  |  | 
CC(C)Cc1ccc(C(C)C(=O)NCCC[Se]C#N)cc1 (stereo not drawn) | 14.3 | 24.4 | 26.3 | 29.3 | 12.1 | 30.2 | 16.5 | 6.4 | 5.3 | 13.5 | 28.5 | 8.9 | 60.8 | Active | Active | Active | 1.5 | 
O=c1[nH]cc(F)c(=O)[nH]1 [FLUOROURACIL] | 10.4 | 25.3 | 15.5 | 12.7 | 8.5 |  | 12.6 |  | 12.4 | 20.6 | 17.3 | 15.3 |  |  |  |  |  | 
CCc1cccc2c3c([nH]c12)C(CC)(CC(=O)NCCC[Se]C#N)OCC3 (stereo not drawn) | 37.4 | 28.4 | 17.4 | 28.5 | 35.2 | 21.7 | > 50 | 20.6 | 18.9 | 26.8 | 36.6 | 19.5 | 24.5 |  |  |  |  | 
Cc1cccc(Nc2ccccc2C(=O)NCCC[Se]C#N)c1C | 11.2 | 37.3 | 34.3 | > 50 | 18.5 | > 50 | 7.9 | 13.2 | 9.7 | 26.5 | > 50 | 14.4 | 26.5 |  |  |  |  | 
CC1=C(CC(=O)NCCC[Se]C#N)c2cc(F)ccc2/C1=C\c1ccc([S+](C)[O-])cc1 (stereo not drawn) | 8.4 | 11.4 | 16.2 | 21.5 | 13.2 | 15.3 | 11.3 | 12.1 | 12.4 | 28.4 | 9.4 | 15.4 | 21.2 |  |  |  |  | 
C[C@H](C(=O)NCCC[Se]C#N)c1cccc(C(=O)c2ccccc2)c1 | 11.3 | 24.1 | 18.5 | 34.7 | 9.6 | 28.4 | 12.5 | 7.7 | 8.4 | 25.6 | 32.6 | 10.2 | 30.4 |  |  |  |  | 
CC(=O)Oc1ccccc1C(=O)NCCC[Se]C#N | 8.6 | 18.4 | 28.4 | 18.3 | 6.8 | 22.6 | 10.3 | 8.2 | 7.4 | 31.4 | 22.3 | 9.3 | 52.1 | Active | Active | Active |  | Active
CC(C(=O)NCCC[Se]C(F)(F)F)c1ccc(-c2ccccc2)c(F)c1 (stereo not drawn) | 17.1 | 14.5 | 28.4 | 14.9 | 12.1 | 23.2 | 18.5 | 19.5 | 24.4 | 30.2 | 35.4 | 18.3 | 40.5 | Active |  |  |  | 
COc1ccc2c(c1)c(CC(=O)NCCC[Se]C#N)c(C)n2C(=O)c1ccc(Cl)cc1 | > 50 | 28.5 | 24.4 | 19.6 | 28.3 | 31.2 | > 50 | 14.2 | 18.2 | 32.1 | > 50 | 16.3 | 49.6 |  |  |  |  | 
Cc1cccc(Nc2ccccc2C(=O)NCCC[Se]C(F)(F)F)c1C | 9.2 | 27.3 | 28.3 | > 50 | 8.5 | 36.8 | 6.9 | 10.3 | 8.4 | 24.5 | > 50 | 12.4 | 38.9 |  |  |  |  | 

Reference: ChEMBL document CHEMBL4765458, “Synthesis and biological evaluation of organoselenium (NSAIDs-SeCN and SeCF) derivatives as potential anticancer agents” (Eur J Med Chem, 2020)
